Test systems include UO-31 renal; HCT-116 colon; HT29 colon; SW-620 colon; HOP-92 NSCLC; SF-539 CNS; M14 melanoma; COLO 205 colon; HL-60(TB) leukemia; NCI-H226 lung.
Common to all, as to experiment: NCI-60 cell line screen, 48 h

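Assay format: 96-well plates, 48-hour exposure. GI50 marks 50% less growth. TGI marks complete inhibition of growth.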 A value given as a limit tells only on which side of the number the result lay.

In the case of `COc1cccc(/C=C/C(=O)c2ccc(SC)cc2)c1OC`, the GI50 was 17 µM in the test with UO-31 renal; 4.35 µM in the test with HCT-116 colon; 9.97 µM with HT29 colon; 18.8 µM with SW-620 colon; 21.6 µM with HOP-92 NSCLC; 20 µM in the test with SF-539 CNS. Moreover, the results for the GI50 in the test with M14 melanoma and in the test with COLO 205 colon were 17.2 µM and 22.6 µM, respectively. Also, the TGI in the test on UO-31 renal was 31.1 µM; in the test with HCT-116 colon it was 15.4 µM; in the test with HT29 colon, 48.8 µM; in the test with SW-620 colon, 35.7 µM; in the test on HOP-92 NSCLC, 54.1 µM; in the test with SF-539 CNS, 39.6 µM. Besides, the TGI with M14 melanoma was 31.1 µM; in the test on COLO 205 colon, 45 µM.
As for `Cc1ccc(-c2nc3ccccc3c(=O)n2NCC2(O)OCC(O)C(O)C2O)cc1` (stereo not drawn), the TGI in the test on UO-31 renal, in the test on HCT-116 colon, with HT29 colon, with SW-620 colon, with SF-539 CNS and in the test with HL-60(TB) leukemia was above 100 µM each time. Further, the TGI with M14 melanoma and with COLO 205 colon was above 100 µM in each case.
For `O=C(CCl)NCCNc1nccc(Nc2ccc(S(=O)(=O)Nc3ccccn3)cc2)n1`, the GI50 in the test with UO-31 renal is 2.77 µM; in the test with HCT-116 colon, 1.54 µM; in the test with HT29 colon it was 2.41 µM; with SW-620 colon, 2.49 µM; in the test with NCI-H226 lung, 3.34 µM; with HOP-92 NSCLC, 3.46 µM. In addition, the GI50 was 1.85 µM in the test on SF-539 CNS, 1.72 µM with M14 melanoma and 3.22 µM in the test with COLO 205 colon. Further, the TGI in the test on UO-31 renal came out at 10 µM; in the test with HCT-116 colon, 5.53 µM; with HT29 colon, 6.52 µM; with SW-620 colon it was 7.27 µM; in the test on NCI-H226 lung it was 28.3 µM; with HOP-92 NSCLC, 9.09 µM. The TGI in the test with SF-539 CNS stood at 3.9 µM; in the test on M14 melanoma, 4.69 µM; in the test on COLO 205 colon it was 11.6 µM.
For the molecule `BrC(Br)=C1C(=C(Br)Br)C(Br)C1Br` (stereo not drawn), the TGI came to 2.24 µM in the test with UO-31 renal; 1.1 µM in the test on HCT-116 colon; 1.49 µM in the test on HT29 colon; 1 µM in the test with SW-620 colon; 0.67 µM in the test with NCI-H226 lung; 2.96 µM with HOP-92 NSCLC. In addition, the TGI was 0.592 µM in the test with M14 melanoma and 2.59 µM with COLO 205 colon.
For `O=S(=O)(CCN1CCOCC1)Nc1cc(-c2ccc3ncnc(Nc4ccc(F)c(Cl)c4)c3c2)cnc1Cl`, the GI50 in the test on UO-31 renal is 0.267 µM; in the test on HCT-116 colon it was 1.38 µM; in the test on HT29 colon, 0.674 µM; with SW-620 colon it was 1.3 µM; in the test on NCI-H226 lung, 0.584 µM; with SF-539 CNS it was 0.418 µM. Further, the figures for the GI50 in the test with HL-60(TB) leukemia and in the test with M14 melanoma were 1.15 µM and 0.754 µM, respectively. Further, the TGI in the test on UO-31 renal came out at 2.13 µM; with HCT-116 colon, 19.2 µM; with HT29 colon, 17.7 µM; in the test with SW-620 colon, 15.8 µM; in the test on NCI-H226 lung, 26.4 µM; in the test on SF-539 CNS it was 2.69 µM. For the same molecule, the TGI stood at 12.4 µM with HL-60(TB) leukemia and 9.42 µM in the test on M14 melanoma.
For the molecule `CC(=O)OC(CC1(C)C(C)CCC23COC(=O)C2=CCCC31)c1ccoc1` (stereo not drawn), the TGI was 60 µM with UO-31 renal; 61.6 µM in the test with HCT-116 colon; above 100 µM with HT29 colon; 66.8 µM with SW-620 colon; 44.1 µM in the test on NCI-H226 lung; 52.5 µM in the test on HOP-92 NSCLC. The TGI is 62.5 µM in the test with SF-539 CNS, 33.9 µM in the test on M14 melanoma and above 100 µM in the test on COLO 205 colon.
As to `CCN1CCC(Nc2ccnc3cc(Cl)ccc23)CC1`, the GI50 was 9.06 µM with UO-31 renal; 8.82 µM in the test on HCT-116 colon; 21.8 µM in the test with SW-620 colon; 39.1 µM in the test on NCI-H226 lung; 45.3 µM in the test with HOP-92 NSCLC; 15.8 µM with SF-539 CNS. Besides, the GI50 with M14 melanoma is 14.4 µM; in the test on COLO 205 colon, 12.5 µM. Moreover, the TGI in the test on UO-31 renal was 29 µM; in the test with HCT-116 colon it was above 100 µM; in the test with SW-620 colon, above 100 µM; in the test with NCI-H226 lung, above 100 µM; in the test on HOP-92 NSCLC, above 100 µM; in the test with SF-539 CNS, 36 µM. The results for the TGI in the test with M14 melanoma and with COLO 205 colon were 29.3 µM and 27.1 µM, respectively.
As for `CSC(=NC#N)S/C=C/C(=O)c1ccccc1`, the GI50 with UO-31 renal is 28.3 µM; with HCT-116 colon, 17.9 µM; with HT29 colon, 37.3 µM; with SW-620 colon it was 18 µM; in the test with HOP-92 NSCLC, 32.4 µM; in the test with SF-539 CNS, 22.6 µM. For the same molecule, the GI50 with M14 melanoma is 24.7 µM; in the test on COLO 205 colon, 35.2 µM. The TGI was above 100 µM in the test on UO-31 renal; 34.1 µM with HCT-116 colon; above 100 µM with HT29 colon; 43.3 µM in the test on SW-620 colon; above 100 µM in the test on HOP-92 NSCLC; 49.4 µM in the test on SF-539 CNS. Also, the TGI was 65.8 µM in the test with M14 melanoma and above 100 µM with COLO 205 colon.
Consider `Cc1cccc(-n2c(N)c(-c3nc4ccccc4[nH]3)sc2=S)c1`, for which the TGI is 87.8 µM with UO-31 renal; 56.6 µM with HT29 colon; 99.2 µM in the test on SW-620 colon; 73.9 µM in the test on NCI-H226 lung; 37 µM in the test with SF-539 CNS; 64 µM in the test with HL-60(TB) leukemia. Besides, the TGI amounted to 48.4 µM in the test with M14 melanoma and 51.8 µM in the test with COLO 205 colon.
With `N#Cc1c(NCc2ccccc2)nc(NCc2ccccc2)c(C#N)c1-c1ccc(O)cc1`, the GI50 with UO-31 renal was 18.6 µM; with HCT-116 colon, 14.5 µM; in the test on HT29 colon, 60.2 µM; in the test on SW-620 colon, 36.1 µM; with NCI-H226 lung, 14.3 µM; with HOP-92 NSCLC, 0.316 µM. Also, the values for the GI50 with SF-539 CNS, in the test on M14 melanoma and in the test with COLO 205 colon were 13.1 µM, 29.9 µM and 36.3 µM, respectively. For the same molecule, the TGI with UO-31 renal was 68.5 µM; in the test on HCT-116 colon, 34.1 µM; in the test with HT29 colon it was above 100 µM; with SW-620 colon it was above 100 µM; with NCI-H226 lung, 67.1 µM; with HOP-92 NSCLC, 7.96 µM. The TGI in the test on SF-539 CNS is 37.4 µM; in the test on M14 melanoma, above 100 µM; in the test on COLO 205 colon it was above 100 µM.

The values are drawn from PubChem BioAssay (NCI).
